The source of these data is patent US20110257145A1, “METHOD OF TREATING NEUROLOGICAL DISEASES” (THE BOARD OF TRUSTEES OF THE UNIVERSITY OF ILLINOIS, priority 2008, published 2011).

Where two headings read alike, the source gives them in different places.

One experiment addresses mouse PKCα (Mus musculus, UniProt P20444). The experiment in a line: PKC binding affinity. The protocol:
ClogP and topological polar surface area (tPSA) values were calculated (Table 1). ClogP values for the tested compounds ranged from 0.92 to 4.67. The tPSA values were in the range of 61.80-90.90. […] The binding affinities of the compounds for mouse PKCα were determined as described previously. The Ki values for each of the compounds 2, 3, 6, 7, and 9-14, and known […] bryostatin 1 and SAHA are listed in Table 1.

The subject of experiment [1] is acetylated histone H4 in primary cortical neurons. The experiment in a line: Western blot of histone H4 acetylation. The format is cell-based, rat. The protocol: (§1) Primary neurons and cell culture: Cell cultures were obtained from the cerebral cortex of fetal Sprague-Dawley rats (embryonic day 17), as described previously. All experiments were initiated 24 hours after plating. Under these conditions, the cells are not susceptible to glutamate-mediated excitotoxicity.
Histone precipitation and Western blot analysis: Treated neurons (about 1×10^6) were incubated in hypotonic lysis buffer (1 mL) containing Tris-HCl (pH 8.0, 10 mM), KCl (1 mM), MgCl2 (1.5 mm), DTT (1 mM), aprotinin (1 mM), pepstatin (1 mM), and PMSF (0.4 mM) for 30 minutes, rotating at 4° C. Nuclei were pelleted by centrifugation for 10 minutes at 10,000 rpm (9000 g), resuspended in H2SO4 (0.4N, 200 μL), and rotated for 12 hours at 4° C. Following centrifugation at 13,000 rpm (16,000 g value) for 10 minutes, the supernatant was transferred to anew tube, and the histone proteins were precipitated by adding 100% trichloroacetic acid (TCA: 66 μL) dropwise followed by 30 minutes incubation on ice. Histone proteins were pelleted by centrifugation at 13,000 rpm (16,000 g) for 10 minutes, washed twice with ice-cold acetone, dried at room temperature for 20-40 minutes, and resuspended in H2O ([…]). Total histone proteins (20 μL) were boiled in Laemmli buffer and electrophoresed under reducing conditions on 15% polyacrylamide gel. Histone proteins were transferred to a nitrocellulose membrane (Bio-Rad, Hercules, Calif.). Nonspecific binding was inhibited by incubation in Tris-buffered saline with Tween 20 (TBST: 50 mM Tris-HCl pH 8.0, 0.9% NaCl, and 0.1% Tween 20) containing 5% nonfat dried milk for at least 1.5 hours. Primary antibodies against acetylated histone H4 or total histone H4 (Upstate) were diluted 1:1000 or 1:4000, respectively, in TBST containing 5% milk and incubated with the membrane for 3 hours at room temperature, followed by incubation with anti-rabbit horseradish peroxidase-conjugated secondary antibodies for 2 h at room temperature. Acetyl histone H4 and total histone H4 immunoreactivity was detected according to the enhanced chemiluminescent protocol (Amersham Biosciences, Fairfield, Conn.).
To illustrate the HDAC-inhibitory activity of the present benzolactams, an ability of the compounds to alter histone acetylation levels was examined. FIG. 3 contains Western blot analyses showing the effect of percent benzolactam compounds at 10 μM (FIG. 3A) and 20 μM (FIG. 3B) in the acetylation levels of histone H4. Cultures of primary cortical neurons were treated with the various benzolactam compounds (at 10 μM) for a period of 8 hours, and Western blot analysis then was performed using acetyl-histone H4-specific antibodies (FIG. 3A).
(In general: Immunoblotting shows a protein as a band on a membrane.)

The subject of the next experiment is primary cortical neurons. The experiment in a line: HCA oxidative stress neuroprotection, cortical neurons (MTT). Type of experiment: cell-based, rat. To be noted: up to 20 μM, presence of HCA, 48 hours. The protocol: as §1
Oxidative toxicity and neuron viability assays: For cytotoxicity studies, cells were rinsed with warm phosphate-buffered saline (PBS), then placed in minimum essential medium (Invitrogen, Carlsbad, Calif.) containing glucose (5.5 g L^−1), 10% fetal calf serum, L-glutamine (2 mM), and cysteine (100 μM). Oxidative stress was induced by the addition of the glutamate analogue HCA ([…]) to the media. HCA was diluted from 100-fold concentrated solutions that were adjusted to pH 7.5. In combination with HCA, TSA, SAHA, or the novel PKC-HDAC compounds were added at various concentrations. Viability was assessed after 48 hours by calceinacetoxymethyl ester (AM)/ethidium homodimer-1 staining (live/dead assay; Molecular Probes, Eugene, Oreg., USA) under fluorescence microscopy and the MTT assay method. Each bar represents the mean ±SEM of four replicates.
In this model of neurodegeneration, oxidative stress is induced by the presence of the glutamate analogue homocysteate (HCA) at a concentration of 5 mM, which depletes the cellular antioxidant glutathione through competitive inhibition of cysteine uptake at the level of the plasma membrane cysteine/glutamate antiporter system xc-. […]
In one embodiment, the present invention relates to a method of treating an individual suffering from a disease or condition wherein activation of PKC and inhibition of HDAC provides a benefit comprising administering a therapeutically effective amount of a compound of structural formula (I) to an individual in need thereof. […] Neuron survival was quantified by MTT assay, a colorimetric assay in which the amount of yellow MTT is reduced to purple formazan by active mitochondrial reductase enzymes in viable cells.

In experiment [2] the test system is HEK293 cells stably transfected with human APP. Put plainly: sAPPα ELISA. The format is cell-based. The protocol: (§2) sAPPα and Aβ40 detection: […] cell lines stably transfected with human APP were maintained in Dulbecco's modified Eagle's medium (DMEM) with 10% fetal bovine serum (FBS). Cells were seeded onto 6-well plates, and incubated at 37° C. overnight. Compounds 9-14 were first dissolved in dimethyl sulfoxide (DMSO) as a 10 mM stock and diluted into the respective concentrations with fresh DMEM with 10% FBS. After exposure overnight, the cell medium was replaced by fresh medium containing the PKC agonist. After incubation for 48 hours, the medium was collected, and both the soluble APP (sAPPα) and Aβ40 levels in the medium were determined by using the sAPPα and Aβ40 ELISA kits obtained from Biosource, Camarillo, Calif. according to the manufacturer's instructions.
In FIG. 1, the data are presented as percent of control±SEM.
For orientation: An ELISA detects its analyte on a solid surface through an enzyme-linked reagent.

The test system is the same in experiment [3]. The experiment in a line: Aβ40 ELISA. The format is cell-based. To be noted: 24 h. The protocol: as §2
It is theorized, but not relied upon, that if APP synthesis is held relatively constant, the production of Aβ decreases if more of the APP is processed through the α-secretase pathway. To confirm that treatment with a present benzolactam enhances the α-secretase APP-processing pathway, compounds 9-14 were examined to determine whether the increased levels of sAPPα corresponds to a decrease in the production of Aβ40. The cells were treated for 24 h at concentrations ranging from 0.001 to 10 μM, and Aβ40 levels were measured by Aβ40 ELISA. […] In FIG. 2, the data are presented as in FIG. 1, with “*” and “**” having the same meaning. […] In general, there was good agreement between an ability of a present benzolactam to increase sAPPα and its ability to decrease Aβ40.

The mark [4] stands for this setting: mouse PKCα, read-out: K1[nm] ± SEM.
[5] abbreviates: concentration not given in the sentence (FIG. 3: 10 and 20 μM).

Compound `CC(C)[C@H]1C(=O)N[C@H](CO)Cc2ccc(O)cc2N1C` [Compound 2, 9-Hydroxy-5-hydroxymethyl-2-isopropyl-1-methyl-(2S,5S)-1,4,5,6-tetrahydro-2H-benzo[e][1,4]diazocin-3-one] had a Ki at mouse PKCα of 4840 ± 320 nM.
For the compound `C=CCCCCCOc1ccc2c(c1)N(C)C(C(C)C)C(=O)NC(CO)C2` (stereo not drawn) [Compound 3, 9-Hept-6-enyloxy-5-hydroxymethyl-2-isopropyl-1-methyl-1,4,5,6-tetrahydro-2H-benzo[e][1,4]diazocin-3-one], the “histone H4 acetylation” value in experiment [1] (20 μM) was “did not increase histone H4 acetylation”. For the same compound, the neuroprotection result with primary cortical neurons is given as “no neuroprotection”.
In the case of `CC(C)[C@H]1C(=O)N[C@H](CO)Cc2ccc(OCCNC(=O)CCCCC3CCSS3)cc2N1C` (stereo partly drawn) [Compound 6, 1N-{2-[5-Hydroxymethyl-2-isopropyl-1-methyl-3-oxo-(2S,5S)-1,2,3,4,5,6-hexahydrobenzo[e][1,4]diazocin-9-yloxy]ethyl}-5-(1,2-dithiolan-3-yl)pentanamide], the Ki on mouse PKCα (setting [4]) is 148 ± 18 nM. In addition, in experiment [1] (setting [5]), the “histone H4 acetylation” value was “failed to induce histone H4 acetylation”. Moreover, the neuroprotection entry in the experiment with primary cortical neurons was “no neuroprotection”.
As to `CC(C)[C@H]1C(=O)N[C@H](CO)Cc2ccc(OC(=O)CCCCC3CCSS3)cc2N1C` (stereo partly drawn) [Compound 7, (2S,5S)-1,2,3,4,5,6-Hexahydro-5-(hydroxymethyl)-2-isopropyl-1-methyl-3-oxobenzo[e][1,4]diazocin-9-yl-5-(1,2-dithiolan-3-yl)pentanoate], the Ki at mouse PKCα (setting [4]) was found to be 5.7 ± 1 nM. Further, the “histone H4 acetylation” value in experiment [1] (setting [5]) was “failed to induce histone H4 acetylation”. Also, in the experiment with primary cortical neurons, the neuroprotection entry was “no neuroprotection”.
`CC(=O)SCCCOc1ccc2c(c1)N(C)C(C(C)C)C(=O)NC(CO)C2` (stereo not drawn) [Compound 9, Thioacetic acid S-[3-(5-hydroxymethyl-2-isopropyl-1-methyl-3-oxo-1,2,3,4,5,6-hexahydrobenzole[e][1,4]diazocin-9-yloxy)propyl]ester]: the sAPPα levels result in experiment [2] (10 μm) is “increase in sAPPα levels”. In addition, the Aβ40 levels result in experiment [3] (10 μM) is “significant decrease in Aβ40 levels”. The “histone H4 acetylation” value in experiment [1] (10 μM, 8 hours) is given as “less effective at inducing histone H4 acetylation”; in experiment [1] (20 μM) it was “modest acetylation was observed”.
Take `CC(=O)SCCCCOc1ccc2c(c1)N(C)C(C(C)C)C(=O)NC(CO)C2` (stereo not drawn) [Compound 10, Thioacetic acid S-[4-(5-hydroxymethyl-2-isopropyl-1-methyl-3-oxo-1,2,3,4,5,6-hexahydrobenzo[e][1,4]diazocin-9-yloxy)butyl] ester]: in experiment [2] (1 nM), the sAPPα levels entry was “statistically significant elevation in sAPPα”. The Aβ40 levels result in experiment [3] (10 μM) was “significant decrease in Aβ40 levels”. The “histone H4 acetylation” value in experiment [1] (10 μM, 8 hours) is on record as “less effective at inducing histone H4 acetylation”; in experiment [1] (20 μM), “modest acetylation was observed”.
For the compound `CC(=O)SCCCCCOc1ccc2c(c1)N(C)C(C(C)C)C(=O)NC(CO)C2` (stereo not drawn) [Compound 11, Thioacetic acid S-[5-(5-hydroxymethyl-2-isopropyl-1-methyl-3-oxo-1,2,3,4,5,6-hexahydrobenzo[e][1,4]diazocin-9-yloxy)pentyl] ester], in experiment [2] (10 μm), the sAPPα levels result is reported as “increase in sAPPα levels”. Moreover, the Aβ40 levels result in experiment [3] (10 μM) was “significant decrease in Aβ40 levels”.
On to `CC(=O)SCCCCCCOc1ccc2c(c1)N(C)C(C(C)C)C(=O)NC(CO)C2` (stereo not drawn) [Compound 12, Thioacetic acid S-[6-(5-hydroxymethyl-2-isopropyl-1-methyl-3-oxo-1,2,3,4,5,6-hexahydrobenzo[e][1,4]diazocin-9-yloxy)hexyl] ester], for which the Ki on mouse PKCα (setting [4]) came out at 8.7 ± 0.7 nM. Besides, the sAPPα levels result in experiment [2] (1-10 μm) is “increase in sAPPα levels”. Moreover, in experiment [3] (10 μM), the Aβ40 levels result is reported as “significant decrease in Aβ40 levels”.
For the compound `CC(=O)SCCCCCCCOc1ccc2c(c1)N(C)C(C(C)C)C(=O)NC(CO)C2` (stereo not drawn) [Compound 13, Thioacetic acid S-[7-(5-hydroxymethyl-2-isopropyl-1-methyl-3-oxo-1,2,3,4,5,6-hexahydrobenzo[e][1,4]diazocin-9-yloxy)heptyl] ester], the Ki on mouse PKCα was 4.5 ± 0.4 nM. The sAPPα levels result in experiment [2] (10 μm) was “increase in sAPPα levels”. Besides, the Aβ40 levels result in experiment [3] (1-10 μM) was “significant decrease in Aβ40 levels”.
As to `CC(=O)SCCCCCCCCOc1ccc2c(c1)N(C)C(C(C)C)C(=O)NC(CO)C2` (stereo not drawn) [Compound 14, Thioacetic acid S-[8-(5-hydroxymethyl-2-isopropyl-1-methyl-3-oxo-1,2,3,4,5,6-hexahydrobenzole[e][1,4]diazocin-9-yloxy)octyl] ester], the sAPPα levels entry in experiment [2] (1-10 μm) is given as “increase in sAPPα levels”. Besides, the Aβ40 levels entry in experiment [3] (1-10 μM) is recorded as “significant decrease in Aβ40 levels”.
